# Experimental data reported in patent US12109202B2, “Fixed dose combination of cholinesterase inhibitor and a quaternary ammonium antimuscarinic agent to treat neurodegenerative cognitive disorders” (priority 2021, dated 2024).
# Tests used:
# [1] = Phase 1 trial, rivastigmine and glycopyrrolate administrations: rivastigmine blood serum concentration time profile (FIG. 2A)
# Description: The serum rivastigmine levels were obtained over the course of twelve hours post-administration.
# [2] = Phase 1 trial, rivastigmine and trospium administrations: rivastigmine blood serum concentration time profile (FIG. 2B); details: 6 mg rivastigmine fed state one hour after 20 mg trospium fasting (subject 1008) versus simultaneous fasting (1001, 1002, 1005)
# Experimental: Patients 1001, 1002, and 1005 were administered trospium and rivastigmine simultaneously in a fasting state. Subject 1008 was administered trospium and rivastigmine in fasting and fed states, respectively.
smiles,measurement,setting,value
CCN(C)C(=O)Oc1cccc([C@H](C)N(C)C)c1 [rivastigmine],rivastigmine blood serum concentration (time profile),"[1]; patient 1006, co-formulated drug delivery element with glycopyrrolate taken in a fasting state, 12 hours post dose",10 ng/mL
same,"adverse effects, separate versus simultaneous administration","[1]; patients 1010 and 1011, glycopyrrolate fasted, rivastigmine with food one hour later","reduced adverse effects, particularly nausea"
same,"peak rivastigmine serum concentration, separate versus simultaneous administration","[1]; patients 1010 and 1011, glycopyrrolate fasted, rivastigmine with food one hour later, compared with patients 1003, 1004 coadministered fasted",delayed peak serum concentration associated with lower peak rivastigmine levels
same,"peak rivastigmine blood serum level, taken with food",[2],attenuated peak rivastigmine levels
